system: p62 puncta in HeLa cells; test: p62 puncta assay (immunocytochemistry and imaging, EVOS M7000 or Operetta CLS); assay type: cell-based; conditions: Homo sapiens, fold change in p62 puncta levels relative to DMSO control, 24 hr
Description: HeLa cells were seeded in coated 96-well plates (10,000 cells) and allowed to adhere overnight. After 24 hours of treatment with either vehicle (DMSO) or test compounds, the media was discarded, and cells were rinsed with ice-cold 1×PBS before fixation by 4% formaldehyde or paraformaldehyde for 20 min. Cells were then washed with 1×PBS and permeabilized with 0.1% Triton X-100 in PBS for 20 min and blocked with Blocking Buffer in PBS for 1 hour. The cells were incubated thereafter for 1 hour with anti-p62 primary antibody in Blocking Buffer, followed by incubation with secondary antibody for 1 hour. DAPI dye was used to visualize nuclei of fixed cells. The blocking buffer used were 5% Fetal Bovine Serum (FBS, ThermoFIsher Scientific, 10270106) and Li-cor Intercept (PBS) Blocking Buffer (Li-cor, 927-70001). The primary antibody used was mouse anti-p62 primary antibody (Novus Biologicals, H00008878-MO1). The secondary antibodies used were goat anti-mouse Alexa Fluor Plus 488 secondary antibody (Invitrogen, GOXMS) and goat anti-mouse Alexa Fluor 488 secondary antibody (Invitrogen, A-11029). The DAPI dyes used were DAPI dye (Invitrogen, 62248) and DAPI dye (Invitrogen, D1306).
For the EVOS M7000 System, cells were imaged on the EVOS M7000 microscope using a 20× air objective (Nikon, N.A 0.45). DAPI and p62 channels were illuminated with LED light cubes using integrated hard-coated filter sets for DAPI (357/447 nm) and GFP (470/525 nm) respectively. Images were analysed for p62 puncta count on the Celeste 6.0 software.
For the Operetta CLS System, cells were imaged on the Operetta CLS using a 63× water objective on the DAPI and Alexa 488 channels. Images were analysed for p62 puncta count on the Harmony 5.1 software.
HeLa cells were treated with compounds for 24 hours to evaluate the effect of these compounds on p62 puncta activity. The resulting changes in levels of p62 puncta were assessed by imaging, either on the EVOS M7000 or Operetta CLS systems as described in experimental procedures. The fold change of p62 puncta levels induced by compound treatment relative to vehicle control (DMSO) was determined and summarized in Table 10.

`OCCNCc1ccc2cc(CCc3ccc(F)cc3)oc2c1` [Compound 49, 2-(((2-(4-fluorophenethyl)benzofuran-6-yl)methyl)amino)ethan-1-ol] and `OCCNCc1ccc2cc(Cc3ccc(F)cc3)oc2c1` [compound 12] cannot be ordered by fold induction at 5 µM: greater than 2 for the first, greater than 2 for the second.

Compared with `Cc1c(Cc2ccccc2)oc2cc(CNCCO)ccc12` [Compound 42, 2-(((2-benzyl-3-methylbenzofuran-6-yl)methyl)amino)ethan-1-ol], `OCCNCc1ccc2cc(Cc3ccccc3)oc2c1` [compound 1] is higher in fold induction at 5 µM: less than 2 for the first, greater than 2 for the second.

`OCCNCc1ccc2cc(-c3ccccc3)oc2c1` [Compound 2, 2-(((2-phenylbenzofuran-6-yl)methyl)amino)ethan-1-ol] and `OCCNCc1ccc2cc(Cc3ccc(Cl)cc3)oc2c1` [Compound 13, 2-(((2-(4-chlorobenzyl)benzofuran-6-yl)methyl)amino)ethan-1-ol] cannot be ordered by fold induction at 5 µM: greater than 2 for the first, greater than 2 for the second.

Reference: patent US20250282742A1, “BENZOFURAN DERIVATIVES FOR TARGETING AUTOPHAGY” (Automera PTE. LTD, priority 2024, published 2025)
